In PMC6214108, “Synthesis and In Vitro Antitumor Activity of Novel Bivalent β-Carboline-3-carboxylic Acid Derivatives with DNA as a Potential Target” (International Journal of Molecular Sciences, 2018):

Tests used:
[1] = tested on: A549 (lung carcinoma) cell line; assay: MTT cytotoxicity assay, A549; assay type: cell-based; details: Homo sapiens, 48 h, mean of three independent experiments, read-out: IC50 (μM) Mean ± SD, A549
Method: (§1) All cell lines (A549, SGC-7901, Hela, SMMC-7721, and MCF-7) were purchased from the American Type Culture Collection (Manassas, VA, USA), and were cultured in Dulbecco’s modified Eagle’s medium (DMEM, HycloneLaboratories Inc., Logan, Utah, USA) supplemented with 10% fetal bovine serum (FBS, Gibco&Invitrogen, Carlsbad, CA, USA) at 37 °C and 5% CO2.
(§2) The cytotoxic activities of β-carboline-3-carboxylic acid derivatives were investigated by the MTT method, as previously described. Cells (1 × 10^4 cells per well) seeded into 96-well plates (JET, Guangzhou, China) were incubated with DMEM containing various concentrations (2.5, 5, 10, 20, 40, and 80 μM) of β-carbolines (4A, 4B, 4C, 4D, 6a-6f, 6g-6l, 6m-6r, and 6s-6x) for 48 h at 37 °C and 5% CO2. Then, 10 µL of 5 mg/mL MTT reagent dissolved in PBS (Phosphate buffered saline) was added per well, and plates were incubated at 37 °C for 4 h. The medium was carefully removed and 100 µL dimethyl sulfoxide (DMSO) was added to dissolve the formazan crystals. The absorbance was measured at 490 nm with a microplate reader (ThermoFisher Scientific Inc., Waltham, MA, USA). The β-carbolines were dissolved in DMSO as stock solutions (10 mM) at −20 °C, and diluted in the final experimental solution using DMEM before use. A549 (lung carcinoma), SGC-7901 (gastric carcinoma), Hela (cervical carcinoma), SMMC-7721 (liver carcinoma), and MCF-7 (breast carcinoma) cell lines were used for the antitumor activity screening. The IC50 values were the mean values of three independent experiments.

[2] = tested on: SGC-7901 (gastric carcinoma) cell line; assay: MTT cytotoxicity assay, SGC-7901; assay type: cell-based; details: Homo sapiens, 48 h, mean of three independent experiments, read-out: IC50 (μM) Mean ± SD, SGC-7901
Method: as §1, §2

[3] = tested on: Hela (cervical carcinoma) cell line; assay: MTT cytotoxicity assay, Hela; assay type: cell-based; details: Homo sapiens, 48 h, mean of three independent experiments, read-out: IC50 (μM) Mean ± SD, Hela
Method: as §1, §2

A549 cells = assay: Cell apoptosis assay, Annexin V-FITC/PI dual staining, flow cytometry; assay type: cell-based; details: 48 h; for Percentage of Cell Apoptosis (%) Normal Living Cell: lower left quadrant in Figure 3; for Percentage of Cell Apoptosis (%) Early Apoptosis: lower right quadrant in Figure 3
Method: The cell apoptosis was evaluated using Annexin V-FITC/PI dual staining (Beyotime, China). A549 cells (1 × 10^6 cells per well) seeded into 6-well plates (JET, Guangzhou, China) were incubated with DMEM containing various concentrations (2, 4, and 8 μM) of β-carbolines (4B, 6i, 4D, and 6u) for 48 h at 37 °C and 5% CO2. The cells in the supernatant and adherent were collected and washed with PBS, and then the cells were stained with Annexin V-FITC and PI for 20 min at r.t. The samples were analyzed using flow cytometry (Becton Dickinson, San Jose, CA, USA).
Figure 3 The cell apoptosis was detected by flow cytometry using Annexin V-FITC/PI dual staining. A549 cells were treated with 4B, 6i, 4D, and 6u at 2, 4, and 8 μM for 48 h, and then stained with Annexin V-FITC and PI for 15 min at 37 °C. The proportions of the living cells, the early apoptosis cells, and the late apoptotic cells were analyzed by FCS Express 5.0. TEXT PRINTED IN THE PICTURE: 4B: 9.00% (2 μM); 11.89% (2 μM); 75.93% (2 μM); 3.18% (2 μM); 8.92% (4 μM); 27.14% (4 μM); 48.59% (4 μM); 15.35% (4 μM); 3.89% (8 μM); 65.76% (8 μM); 21.95% (8 μM); 8.40% (8 μM) | 6i: 0.77% (2 μM); 20.26% (2 μM); 72.12% (2 μM); 6.85% (2 μM); 9.33% (4 μM); 33.08% (4 μM); 44.94% (4 μM); 12.65% (4 μM); 23.51% (8 μM); 59.73% (8 μM); 12.52% (8 μM); 4.24% (8 μM) | Control: 0.36%; 7.08%; 88.34%; 4.22% | 4D: 2.62% (2 μM); 16.16% (2 μM); 73.94% (2 μM); 7.27% (2 μM); 10.30% (4 μM); 34.96% (4 μM); 47.93% (4 μM); 6.80% (4 μM); 22.79% (8 μM); 54.30% (8 μM); 17.63% (8 μM); 5.28% (8 μM) | 6u: 0.17% (2 μM); 21.64% (2 μM); 66.05% (2 μM); 12.14% (2 μM); 6.92% (4 μM); 54.01% (4 μM); 32.53% (4 μM); 6.54% (4 μM); 2.79% (8 μM); 80.73% (8 μM); 8.83% (8 μM); 7.65% (8 μM) DOUBTS OF THE COPYIST ABOUT THIS PICTURE: The quadrant percentages carry no printed measure. For each plot they are listed in the order upper left, upper right, lower left, lower right. / All quadrant percentages are printed very small and blurred, so 3, 5, 6, 8 and 9 cannot be told apart with certainty in any of them.

CT DNA = assay: Thermal denaturation study with CT DNA; assay type: binding, calf; details: β-carboline/DNA ratio of 0.5, pH 7.4
Method: The DNA-binding modes of the β-carboline derivatives (4B, 6i, 4D, and 6u) with CT DNA were examined by DNA thermal denaturation experiments, as previously described. The solutions containing complexes of CT DNA and 4B, 6i, 4D, or 6u were heated using a thermostatic water bath, and the absorbance was measured in 1 °C steps from 30 °C to 95 °C at 260 nm (At) by a UV-Vis spectrophotometer (A is the absorbance of the solution at 260 nm at different temperatures, t is the temperature). The experiments were performed in PE buffer (pH = 7.4) with a β-carboline/DNA ratio of 0.5. The ΔTm value of DNA alone is 56.8 °C. ΔTm = ΔTm^(DNA + 4B, 6i, 4D, or 6u) − ΔTm^(DNA alone).
Figure 6 Thermal denaturation study of the complexes of β-carbolines (4B, 6i, 4D, and 6u) and CT-DNA. Melting temperatures were measured in PBS-EDTA buffer (1 mM Na2HPO4, 0.1 mM EDTA, PH 7.4) with a β-carboline (4B, 6i, 4D, and 6u)/DNA ratio of 0.5. ΔTm = (ΔTm^4B,6i,4D, or 6u + DNA − ΔTm^DNA).

Structure (SMILES) | IC50 [1] [µM] | IC50 [2] [µM] | IC50 [3] [µM] | Percentage of Cell Apoptosis (%) Late Apoptosis and Necrosis (A549 cells; A549, 2 μM) [%] | Percentage of Cell Apoptosis (%) Normal Living Cell (A549 cells; A549, 2 μM) [%] | Percentage of Cell Apoptosis (%) Early Apoptosis (A549 cells; A549, 2 μM) [%] | Percentage of Cell Apoptosis (%) Late Apoptosis and Necrosis (A549 cells; A549, 4 μM) [%] | Percentage of Cell Apoptosis (%) Normal Living Cell (A549 cells; A549, 4 μM) [%] | Percentage of Cell Apoptosis (%) Early Apoptosis (A549 cells; A549, 4 μM) [%] | Percentage of Cell Apoptosis (%) Late Apoptosis and Necrosis (A549 cells; A549, 8 μM) [%] | Percentage of Cell Apoptosis (%) Normal Living Cell (A549 cells; A549, 8 μM) [%] | Percentage of Cell Apoptosis (%) Early Apoptosis (A549 cells; A549, 8 μM) [%] | ΔTm (CT DNA) [°C]
COC(=O)c1cc2c3ccccc3n(Cc3ccccc3F)c2cn1 [Compound 4D] | 13.94 ± 0.07 | 17.8 ± 0.66 | 26.4 ± 1.33 | 18.78 | 73.94 | 7.27 | 45.26 | 47.93 | 6.80 | 77.09 | 17.63 | 5.28 | 3.5
Cc1ccccc1Cn1c2ccccc2c2cc(C(=O)OCCCCCOC(=O)c3cc4c5ccccc5n(Cc5ccccc5C)c4cn3)ncc21 [Compound 6i] | 6.93 ± 0.33 | 7.18 ± 0.01 | 9.88 ± 0.04 | 21.03 | 72.12 | 6.85 | 42.41 | 44.94 | 12.65 | 83.24 | 12.52 | 4.24 | 8.5
COC(=O)c1cc2c3ccccc3n(Cc3ccccc3C)c2cn1 [Compound 4B] | 39.2 ± 1.18 | 42.3 ± 2.13 | 31.3 ± 2.33 | 20.89 | 75.93 | 3.18 | 36.06 | 48.59 | 15.35 | 69.65 | 21.95 | 8.40 | 7.5
O=C(OCCCCCOC(=O)c1cc2c3ccccc3n(Cc3ccccc3F)c2cn1)c1cc2c3ccccc3n(Cc3ccccc3F)c2cn1 [Compound 6u] | 5.61 ± 0.04 | 5.86 ± 0.08 | 14.6 ± 0.36 | 21.81 | 66.05 | 12.14 | 60.93 | 32.53 | 6.54 | 83.52 | 8.83 | 7.65 | 9.0
